Assay results published in article PMC5884648, “Relationship between the agonist activity of synthetic ligands of TRAIL-R2 and their cell surface binding modes” (Oncotarget, 2018).
*1 amine or outer side, *2 acyl side, *3 side chain or, on linkers, in order; H or OH if unused. Where a SMILES comes first, the peptide text is derived from it. Bridges are numbered along the chain shown (N, C = ends). Roman numbers before positions name the chains, in order. The star is where a group is joined. X1 = CN(CCCC(=O)NC(CCC(=O)[*:1])CCC(=O)[*:2])C(=O)c1ccccc1-c1c2ccc(=N)c(S(=O)(=O)O)c-2oc2c(S(=O)(=O)O)c(N)ccc12; X3 = N=c1ccc2c(-c3cc(C(=O)*)ccc3C(=O)O)c3ccc(N)c(S(=O)(=O)O)c3oc-2c1S(=O)(=O)O

Experiments:
human TRAIL-R2 = molecular target: T1, human TRAIL-R2 (Homo sapiens, UniProt O14763); test: Surface plasmon resonance on sensor-immobilized TRAIL-R2; type: binding; conditions: SPR, 25° C, Langmuir model
T1 construct: purchased Enzo Life Sciences
Experimental: SPR assays were performed on a Biacore T200™, at 25° C. The running buffer was HBS-EP [10 mM HEPES (pH 7.4) containing 0.15 M NaCl, 3.4 mM EDTA and 0.005% (v/v) Tween P20]. The human TRAIL-R2 (Enzo Life Sciences, Farmingdale, NY, USA) receptor was immobilized on a sCM5 sensor chip (GE Healthcare) using the standard amine coupling procedure. The receptors were diluted in 10 mM acetate buffer (pH 5.0) at a concentration of 5 μg/mL. The TRAIL-R2 immobilization level on the sensor chip was 430 RU. Peptides were injected at a flow rate of 5 μL/min for 120 s and allowed to dissociate for an additional 420 s. Surfaces were then regenerated for 5 s with 25 mM HCl. All binding curves were double-referenced (i.e. subtraction of the data of the empty flow cell followed by the subtraction of the data from a running buffer injection cycle).
(§1) Double-referenced SPR binding curves sets were fitted globally using the BIAevaluation 4.1.1 (GE Healthcare Biacore) or TraceDrawer (Ridgeview Diagnostics AB, Uppsala, Sweden) softwares. The signal recorded with the LigandTracer on an empty spot or slide was subtracted from that recorded on cell-carrying slides. The resulting binding curves were analyzed by kinetic distribution analysis using the tool Interaction Map (Ridgeview Diagnostics AB, Uppsala, Sweden). Interaction Map decomposes the kinetic curve recorded for the binding of a homogeneous ligand to a heterogeneous group of targets into its different components. Results are represented as interaction maps (kon versus koff, log scale), where the color of each populated area represents its degree of contribution to the kinetic curve (red = high contribution, blue = low contribution).

HCT116 cells = test: Cell viability MTS assay, HCT116; type: cell-based, human; conditions: 24 hours
Experimental: (§2) BJAB, Jurkat and HCT116 cells (10^5 cells/well) were cultured in 100 µL of culture medium in 96-flat bottom well plates. The next day, cells were treated with the indicated concentrations of the different TRAILmin/DR5 peptides. After 24 hours of treatment cell viability measurement was performed by the MTS assay according to the manufacturer specification (Promega Corporation, Madison, WI, USA).

BJAB cells = test: Cell viability MTS assay, BJAB; type: cell-based, human; conditions: 24 hours
Experimental: as §2

[1] = molecular target: TRAIL-R2 expressed on BJAB cells (Homo sapiens, UniProt O14763); test: LigandTracer real time binding on living BJAB cells; parameters: expressed in transfected cells
Experimental: The adherent cells HCT116-TRAIL-R2-DEF and HCT116 cells were directly plated on glass slides (Ø20 mm) (10^6 cells/well). The cells in suspension (BJAB and BJAB-TRAIL-R2-DEF) were covalently adhered to glass slides coated with poly-L-lysine (0.1% v/v) (Sigma Aldrich, Saint Louis, MO, USA). The adhesion was strong enough for measurement during 10h. After 24 hours, the slides were fixed with superglue at different locations of a Petri dish, which was inserted in the LigandTracer Green instrument (Ridgeview Instrument AB, Uppsala, Sweden). An empty spot or empty glass slide fixed to the Petri dish was used to record the background signal. This set-up allowed the simultaneous monitoring of the binding of a given peptide to different cell-carrying glass slides fixed to the dish. Three mL of solution (culture medium without or with fluorescent peptide) were added to the dish. In the LigandTracer instrument, the dish is tilted and rotates. Consequently the 3 mL solution covers only the lower part of the dish and each cell-carrying slide is alternatively in contact and out of contact with the solution (at intervals of 8 to 16 s). The fluorescence signal is recorded over time when the slide is out of the solution, and therefore corresponds to the amount of bound peptide. The solution in the dish was initially the culture medium (∼30 min) to provide a stable base line. The fluorescent peptide was then added in increasing doses (10, 30 and 90 nM) every two to three hours. Finally the peptide-containing sample was replaced with fresh medium and the dissociation of the peptide from the cells was followed overnight. The measurements were conducted at room temperature (approximately 20° C).
as §1

[2] = molecular target: T2, TRAIL-R2 expressed on HCT116 cells (Homo sapiens, UniProt O14763); test: LigandTracer real time binding on living HCT116 cells; conditions: HCT116 cells expressing TRAIL-R2
T2 construct: we used BJAB, HCT116 and Jurkat that express a natural level of TRAIL-R2 receptors; endogenous in cells; host or cells: HCT116
Experimental: The adherent cells HCT116-TRAIL-R2-DEF and HCT116 cells were directly plated on glass slides (Ø20 mm) (10^6 cells/well). The cells in suspension (BJAB and BJAB-TRAIL-R2-DEF) were covalently adhered to glass slides coated with poly-L-lysine (0.1% v/v) (Sigma Aldrich, Saint Louis, MO, USA). The adhesion was strong enough for measurement during 10h. After 24 hours, the slides were fixed with superglue at different locations of a Petri dish, which was inserted in the LigandTracer Green instrument (Ridgeview Instrument AB, Uppsala, Sweden). An empty spot or empty glass slide fixed to the Petri dish was used to record the background signal. This set-up allowed the simultaneous monitoring of the binding of a given peptide to different cell-carrying glass slides fixed to the dish. […] The fluorescence signal is recorded over time when the slide is out of the solution, and therefore corresponds to the amount of bound peptide. […]
Double-referenced SPR binding curves sets were fitted globally using the BIAevaluation 4.1.1 (GE Healthcare Biacore) or TraceDrawer (Ridgeview Diagnostics AB, Uppsala, Sweden) softwares. The signal recorded with the LigandTracer on an empty spot or slide was subtracted from that recorded on cell-carrying slides. The resulting binding curves were analyzed by kinetic distribution analysis using the tool Interaction Map (Ridgeview Diagnostics AB, Uppsala, Sweden). […]

TRAIL-R2 on BJAB cells = molecular target: T3, TRAIL-R2 on BJAB cells (Homo sapiens, UniProt O14763); test: Flow cytometry staining with fluorescent peptides, BJAB; type: binding
T3 construct: expressed in transfected cells
Experimental: (§3) 10^6 cells were washed in PBS containing 2% FCS and then incubated at 4° C for 30 min with an anti-TRAIL-R2 antibody (clone BK9 Diaclone, Besançon, France) according to concentration recommended by the manufacturer or with fluorescent peptides at the concentration of 1 µM. After two washes in PBS-2% FBS, TRAIL-R2 expression was monitored by flow cytometry (Guava easyCyte™, Merck Milipore, Darmstadt, Germany) and data were analyzed with InCyte Software (Merck Milipore).

TRAIL-R2 on HCT116 cells = molecular target: T4, TRAIL-R2 on HCT116 cells (Homo sapiens, UniProt O14763); test: Flow cytometry staining with fluorescent peptides, HCT116; type: binding
T4 construct: we used BJAB, HCT116 and Jurkat that express a natural level of TRAIL-R2 receptors; endogenous in cells; host or cells: HCT116
Experimental: as §3

T1 sequence (O14763 56-440): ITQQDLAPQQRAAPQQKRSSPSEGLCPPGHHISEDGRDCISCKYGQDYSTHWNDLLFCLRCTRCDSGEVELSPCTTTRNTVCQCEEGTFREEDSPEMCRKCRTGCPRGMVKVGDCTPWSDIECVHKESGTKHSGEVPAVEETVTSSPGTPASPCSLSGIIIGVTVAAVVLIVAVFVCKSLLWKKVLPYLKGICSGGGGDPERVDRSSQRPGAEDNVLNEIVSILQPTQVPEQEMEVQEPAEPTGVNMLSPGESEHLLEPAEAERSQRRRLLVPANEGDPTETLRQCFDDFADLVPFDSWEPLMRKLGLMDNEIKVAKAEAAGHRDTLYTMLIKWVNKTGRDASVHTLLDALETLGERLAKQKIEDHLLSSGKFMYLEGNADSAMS
TRAIL-R2 expressed on BJAB cells, sequence (O14763 56-440): as above
T3 sequence (O14763 56-440): as above
T4 sequence (O14763 56-440): as above
T2 sequence (O14763 56-440): as above

SMILES	koff (human TRAIL-R2)	kon (human TRAIL-R2)	apoptosis induction in HCT116 cells (HCT116 cells)	apoptosis induction in BJAB cells (BJAB cells)	cell surface binding ([1]; BJAB cells deficient for TRAIL-R2)	cell surface binding ([1]; BJAB cells expressing TRAIL-R2)	fluorescent signal reached ([1]; BJAB cells that expressed TRAIL-R2, 10, 30 and (f1d) 90 nM)	cell surface binding [2]	binding by flow cytometry (TRAIL-R2 on BJAB cells; BJAB cells deficient for TRAIL-R2, peptide 1 µM)	binding by flow cytometry (TRAIL-R2 on BJAB cells; BJAB cells expressing TRAIL-R2, peptide 1 µM)	binding by flow cytometry (TRAIL-R2 on HCT116 cells; HCT116 cells deficient for TRAIL-R2, peptide 1 µM)	binding by flow cytometry (TRAIL-R2 on HCT116 cells; HCT116 cells expressing TRAIL-R2, peptide 1 µM)
CC[C@H](C)[C@@H]1NC(=O)[C@H](CCCNC(=N)N)NC(=O)[C@H](CC(N)=O)NC(=O)[C@H](CC(=O)O)NC(=O)[C@H](CC(C)C)NC(=O)[C@@H](NC(=O)[C@H](CC(=O)O)NC(=O)[C@H](Cc2c[nH]c3ccccc23)NC(C)=O)CSSC[C@@H](C(=O)N[C@H](C(=O)N[C@@H](CCCNC(=N)N)C(=O)N[C@@H](CC(C)C)C(N)=O)C(C)C)NC(=O)[C@H](CCC(N)=O)NC(=O)[C@H](CCCNC(=N)N)NC(=O)[C@H](CCCCN)NC(=O)CNC1=O [2m] (Ac-WDCLDNRIGKRQCVRL-NH2; disulfide 3-13; N-terminus and C-terminus assumed)	0.016 s⁻¹	3600 M⁻¹ s⁻¹										
CC[C@H](C)[C@@H]1NC(=O)[C@H](CCCNC(=N)N)NC(=O)[C@H](CC(N)=O)NC(=O)[C@H](CC(=O)O)NC(=O)[C@H](CC(C)C)NC(=O)[C@@H](NC(=O)[C@H](CC(=O)O)NC(=O)[C@H](Cc2c[nH]c3ccccc23)NC(C)=O)CSSC[C@@H](C(=O)N[C@H](C(=O)N[C@@H](CCCCNC(=O)CCC(CCC(=O)NCCCC[C@H](NC(=O)[C@@H](NC(=O)[C@@H]2CSSC[C@H](NC(=O)[C@H](CC(=O)O)NC(=O)[C@H](Cc3c[nH]c4ccccc34)NC(C)=O)C(=O)N[C@@H](CC(C)C)C(=O)N[C@@H](CC(=O)O)C(=O)N[C@@H](CC(N)=O)C(=O)N[C@@H](CCCNC(=N)N)C(=O)N[C@@H]([C@@H](C)CC)C(=O)NCC(=O)N[C@@H](CCCNC(=N)N)C(=O)N[C@@H](CCCNC(=N)N)C(=O)N[C@@H](CCC(N)=O)C(=O)N2)C(C)C)C(=O)N[C@@H](CC(C)C)C(N)=O)NC(=O)CCCN(C)C(=O)c2ccccc2-c2c3ccc(=N)c(S(=O)(=O)O)c-3oc3c(S(=O)(=O)O)c(N)ccc23)C(=O)N[C@@H](CC(C)C)C(N)=O)C(C)C)NC(=O)[C@H](CCC(N)=O)NC(=O)[C@H](CCCNC(=N)N)NC(=O)[C@H](CCCNC(=N)N)NC(=O)CNC1=O (stereo partly drawn) [f1d] (I: Ac-WDCLDNRIGRRQCVKL-NH2 / II: Ac-WDCLDNRIGRRQCVKL-NH2; disulfide I:3-I:13, II:3-II:13; linker I:15-II:15 via X1; N-terminus and C-terminus assumed)	0.0014 s⁻¹	22000 M⁻¹ s⁻¹	scarcely induced their apoptosis	induced apoptosis	weak signals	strong binding	> 25	bound weakly	not	bound	not	bound
CC[C@H](C)[C@@H]1NC(=O)[C@H](CCCNC(=N)N)NC(=O)[C@H](CC(N)=O)NC(=O)[C@H](CC(=O)O)NC(=O)[C@H](CC(C)C)NC(=O)[C@@H](NC(=O)[C@H](CC(=O)O)NC(=O)[C@H](Cc2c[nH]c3ccccc23)NC(C)=O)CSSC[C@@H](C(=O)N[C@H](C(=O)N[C@@H](CCCCNC(=O)c2ccc(C(=O)O)c(-c3c4ccc(=N)c(S(=O)(=O)O)c-4oc4c(S(=O)(=O)O)c(N)ccc34)c2)C(=O)N[C@@H](CC(C)C)C(N)=O)C(C)C)NC(=O)[C@H](CCC(N)=O)NC(=O)[C@H](CCCNC(=N)N)NC(=O)[C@H](CCCNC(=N)N)NC(=O)CNC1=O [f1m] (Ac-WDCLDNRIGRRQCVK(X3)L-NH2; disulfide 3-13; N-terminus and C-terminus assumed)	0.0014 s⁻¹	14000 M⁻¹ s⁻¹		did not induce apoptosis		weak binding						
